According to PMC7504360 (International Journal of Molecular Sciences, 2020):
Like-named read-outs stand apart in the source and are kept apart here. Square brackets hold non-standard residues; d marks the D form. Peptide text beside a SMILES is read from it.

How the values were obtained:
all bacterial strains = test: Mean MIC over all bacterial strains (GM); type: cell-based; conditions: mean MIC of all bacterial strains of Table 2
Procedure: (§1) Briefly, the microplates were inoculated with two-fold serial dilutions of each peptides in Mueller–Hinton (MH) media and then seeded with log-phase culture of aforementioned bacterial suspensions (2 × 10^5 CFU/mL). The microplates were incubated for 16 h at 37 °C, and absorbance was read at 600 nm using microplate reader SpectraMAX (Molecular Devices, San Jose, CA, USA).

[1] = tested on: MDRAB 12010 (A. baumannii CCARM 12010)
Source text: (§2) Two strains of gram-negative bacteria, namely E. coli (KCTC 1682) and A. baumannii (KCCM 40203) from the Korean Collection for Type Cultures (KCTC) (Taejon, Korea) and Korean Culture Center of Microorganisms (KCCM) (Seoul, South Korea). Escherichia coli K1 strain RS218 (O18:K1:H7) was a gift from Prof. Jang-Won Yoon in Kangwon National University (Chuncheon, South Korea). Multidrug-resistant gram-negative bacteria (E. coli CCARM 1229, E. coli CCARM 1238, A. baumannii CCARM 12010, and A. baumannii CCARM 12220) were obtained from the Culture Collection of Antibiotic-Resistant Microbes (CCARM) at Seoul Women’s University (Seoul, South Korea).
as §1

[2] = tested on: MDREC 1238 (E. coli CCARM 1238)
Source text: as §2, §1

[3] = tested on: MDREC 1229 (E. coli CCARM 1229)
Source text: as §2, §1

E. Coli = tested on: E. Coli
Source text: as §2, §1

[4] = tested on: MDRAB 12220 (A. baumannii CCARM 12220)
Source text: as §2, §1

[5] = tested on: A. baumannii (KCCM 40203)
Source text: as §2, §1

RAW264.7 cells = test: Cytotoxicity, WST-8 cell proliferation assay; type: cell-based, mouse; conditions: 24 h, WST-8, 450 nm, mean of three experiments
Procedure: Murine RAW264.7 macrophage cells were purchased from Korean Cell Line Bank (Seoul, South Korea). The cells were cultured in Dulbecco modified Eagle medium (DMEM) (Thermo Fischer Scientific Inc., MA, USA) supplemented with 10% fetal bovine serum, 100 U/mL penicillin, and […] streptomycin at 37 °C in a humidified 5% CO2 incubator. The cytotoxicity of peptides against RAW264.7 cells was determined using WST-8 Cell Proliferation Assay Kit (Biomax Co.,Ltd, Seoul, South Korea). Briefly, cells (1 × 10^5) were seeded in 96-well plated and then treated with 3.125, 6.25, 12.5, 25, and 50 μM of respective peptides for 24 h followed by addition of 10 μL of the WST-8 reagent for another 3 h incubation at 37 °C. The color intensity was read at 450 nm using a microplate reader.

[6] = tested on: sheep red blood cells (sRBCs); test: Hemolytic activity; type: cell-based
Procedure: The hemolytic activity of all Pro-peptides were tested against sheep red blood cells (sRBCs) as described in previous reports. Fresh sRBCs were washed three times with phosphate-buffered saline (PBS) followed by centrifugation for 5 min at 2500 rpm at 4 °C. Peptides (0.2 to 100 μM) in PBS were incubated with 4% (v/v) sRBCs for 1 h at 37 °C. The contents were then centrifuged for 5 min at 1000 × g. The absorbance of the supernatant at 405 nm was used as a measure of hemolysis, and three times independent measurements were averaged. As a control, 100% hemolysis was obtained by treating sRBCs with melittin.

chymotrypsin = test: Protease stability assay (antimicrobial activity after protease digestion); type: in vitro ADME; conditions: peptide–enzyme 10,000:1, PBS, 6 h at 37 °C preincubation, then E. coli and A. baumannii 2 × 10^5 CFU/mL, 16 h at 37 °C, 600 nm, repeated three times
Procedure: (§3) For stability analysis, all Pro-peptides at their MICs were incubated with trypsin and chymotrypsin at the ratio of 10,000:1 (peptide–enzyme) in PBS for 6 h at 37 °C. After incubation, 100 μL of peptide-protease mixture was added to the 100 μL bacterial suspension (E. coli and A. baumannii, 2 × 10^5 CFU/mL) and further incubated for 16 h at 37 °C. Melittin was used as standard peptide, and bacterial suspension without peptide and protease served as control. The experiment was repeated three times, and the extent of bacterial growth was measured at 600 nm using a microplate reader.

[7] = tested on: Standard gram-negative bacteria; conditions: table row printed 'Standard gram-negative bacteria'; MH media, 2 × 10^5 CFU/mL, 16 h at 37 °C, absorbance 600 nm; average of three measurements
Source text: as §2, §1

trypsin = test: Protease stability assay (antimicrobial activity after protease digestion); type: in vitro ADME; conditions: peptide–enzyme 10,000:1, PBS, 6 h at 37 °C preincubation, then E. coli and A. baumannii 2 × 10^5 CFU/mL, 16 h at 37 °C, 600 nm, repeated three times
Procedure: as §3

[8] = LPS neutralization, limulus amebocyte lysate (LAL) assay; type: biochemical, Escherichia coli O111:B4; conditions: 50 μM peptide, 20 ng/mL LPS, 30 min at 37 °C, LAL chromogenic kit, 405 nm; triplicate
Procedure: The LPS-neutralizing activity of all peptides was determined using the Pierce LAL chromogenic endotoxin quantitation kit (ThermoFisher Scientific, MA, USA). All peptides including standard (Polymixin B) at varying concentrations (3.12, 6.25, 12.5, 25, and 50 μM in endotoxin-free water) were allowed to bind with 20 ng/mL of LPS in a 96-well plate for 30 min at 37 °C. To this, an equal volume (10 μL) of LAL reagent was added and incubated for 10 min at 37 °C and then 20μL of LAL chromogenic substrate was added. After 15 min incubation at 37 °C, the reaction was stopped by 25% acetic acid and the reduction in yellow color formation due to the substrate was measured at 405 nm on an absorbance microplate reader. The experiment was conducted in triplicate, and the changes in absorbance due to peptide-LPS interaction are indicated as percent LPS neutralization.

| Compound | Minimal Inhibitory Concentration (MIC100) ([1]; CCARM 12010, 16 h) | Minimal Inhibitory Concentration (MIC100) ([2]; CCARM 1238, 16 h) | Minimal Inhibitory Concentration (MIC100) ([3]; CCARM 1229, 16 h) | Minimal Inhibitory Concentration (MIC100) (E. Coli; 16 h) | Minimal Inhibitory Concentration (MIC100) ([4]; CCARM 12220, 16 h) | Minimal Inhibitory Concentration (MIC100) ([5]; KCCM 40203, 16 h) | survival rate of RAW264.7 cells (RAW264.7 cells; 25 μM) | survival rate of RAW264.7 cells (RAW264.7 cells; 50 μM) | HC10 (peptide concentration inducing 10% hemolysis) ([6]; red cells of sheep, 1 h) | peptide concentration up to which bacterial growth was not inhibited in the presence of protease (chymotrypsin) | Minimal Inhibitory Concentration (MIC100) [7] | other results |
| --- | --- | --- | --- | --- | --- | --- | --- | --- | --- | --- | --- | --- |
| CC[C@H](C)[C@H](NC(=O)CN)C(=O)NCC(=O)N[C@@H](C)C(=O)N[C@H](C(=O)N[C@@H](CC(C)C)C(=O)N[C@@H](CCCCN)C(=O)N[C@H](C(=O)N[C@@H](CC(C)C)C(=O)N[C@H](C(=O)N[C@H](C(=O)NCC(=O)N[C@@H](CC(C)C)C(=O)N1CCC[C@H]1C(=O)N[C@@H](C)C(=O)N[C@@H](CC(C)C)C(=O)N[C@H](C(=O)N[C@@H](CO)C(=O)N[C@@H](Cc1c[nH]c2ccccc12)C(=O)N[C@H](C(=O)N[C@@H](CCCCN)C(=O)N[C@@H](CCCNC(=N)N)C(=O)N[C@@H](CCCCN)C(=O)N[C@@H](CCCNC(=N)N)C(=O)N[C@@H](CCC(N)=O)C(=O)N[C@@H](CCC(N)=O)C(N)=O)[C@@H](C)CC)[C@@H](C)CC)[C@@H](C)O)[C@@H](C)O)C(C)C)C(C)C [Melittin, reference compound] |  |  |  |  |  |  |  |  |  |  |  | GM (geometric mean of MIC values of all bacterial strains) (all bacterial strains): 12.0 µM |
| CC[C@@H](C)[C@@H](NC(=O)[C@@H](C)NC(=O)[C@@H](CC(C)C)NC(=O)[C@@H](Cc1c[nH]c2ccccc12)NC(=O)[C@@H](CC(C)C)NC(=O)[C@H](N)CCCNC(=N)N)C(=O)N[C@H](Cc1c[nH]c2ccccc12)C(=O)N[C@H](CCCNC(=N)N)C(=O)N[C@H](CCCNC(=N)N)C(N)=O [Pro9-3D] (H-[dR][dL][dW][dL][dA][dI][dW][dR][dR]-NH2) | 8 µM | 4 µM | 8 µM | 4 µM | 8 µM | 4 µM | 68% | 51.8% | 200 µM |  |  |  |
| CC[C@H](C)[C@H](NC(=O)[C@H](C)NC(=O)[C@H](CC(C)C)NC(=O)[C@H](Cc1c[nH]c2ccccc12)NC(=O)[C@H](CC(C)C)NC(=O)[C@@H](N)CCCNC(=N)N)C(=O)N[C@@H](Cc1c[nH]c2ccccc12)C(=O)N[C@@H](CCCNC(=N)N)C(=O)N[C@@H](CCCNC(=N)N)C(N)=O [Pro9-3] (H-RLWLAIWRR-NH2) | 16 µM | 32 µM | 16 µM | 16 µM | 16 µM | 16 µM | 95% | 94% | 200 µM | > 64 µM | 16 µM |  |
| CC[C@H](C)[C@H](NC(=O)[C@H](C)NC(=O)[C@H](CC(C)C)NC(=O)[C@H](Cc1c[nH]c2ccccc12)NC(=O)[C@H](CC(C)C)NC(=O)[C@H](CCCNC(=N)N)NC(=O)[C@@H](N)CCCNC(=N)N)C(=O)N[C@@H](Cc1c[nH]c2ccccc12)C(=O)N[C@@H](CCCNC(=N)N)C(=O)N[C@@H](CCCNC(=N)N)C(N)=O [Pro10-1] (H-RRLWLAIWRR-NH2) |  |  |  |  |  |  | 90% | 87% |  | > 64 µM | 16 µM | peptide concentration up to which bacterial growth was not inhibited in the presence of protease (trypsin): > 64 µM; Minimal Inhibitory Concentration (MIC100) ([1]; MDRAB 12010, MH media, 2 × 10^5 CFU/mL, 16 h at 37 °C, absorbance 600 nm, average of three measurements): 8 µM; Minimal Inhibitory Concentration (MIC100) ([2]; MDREC 1238, MH media, 2 × 10^5 CFU/mL, 16 h at 37 °C, absorbance 600 nm, average of three measurements): 32 µM; Minimal Inhibitory Concentration (MIC100) ([3]; MDREC 1229, MH media, 2 × 10^5 CFU/mL, 16 h at 37 °C, absorbance 600 nm, average of three measurements): 8 µM; Minimal Inhibitory Concentration (MIC100) (E. Coli; table row printed 'E. Coli', MH media, 2 × 10^5 CFU/mL, 16 h at 37 °C, absorbance 600 nm, average of three measurements): 16 µM; Minimal Inhibitory Concentration (MIC100) ([4]; MDRAB 12220, MH media, 2 × 10^5 CFU/mL, 16 h at 37 °C, absorbance 600 nm, average of three measurements): 16 µM; Minimal Inhibitory Concentration (MIC100) ([5]; A. baumannii, MH media, 2 × 10^5 CFU/mL, 16 h at 37 °C, absorbance 600 nm, average of three measurements): 8 µM; hemolysis ([6]; 100 μM peptide, 4% (v/v) sRBCs in PBS, 1 h at 37 °C, absorbance 405 nm, three measurements averaged): no hemolytic activity; HC10 (peptide concentration inducing 10% hemolysis) ([6]; heparinized sheep red blood cells, 200 μM entered when no detectable hemolysis was observed at 100 μM): 200 µM |
| polymyxin B [reference compound] |  |  |  |  |  |  |  |  |  |  |  | inhibition of the activation of LPS (LPS neutralization) [8]: 67.4% |
